Test results as given in patent publication US8802164B2 (Oryza Oil & Fat Chemical Co., Ltd., priority 2003, dated 2014).
Converted amounts (≈) assume the structure as drawn.

What was measured:
[1] = Diet effect on weight gain and body fat accumulation, mice fed sample-mixed food for 13 days; format: in vivo; details: mice ddY, sample mixed in food; for effect on accumulation of epididymal fat and perinephric fat weight: 13 days, FIG. 2; for effect on the weight gain: free feeding 13 days, extract 0.5/1.0 wt %, caffeine 0.05/0.1 wt %, chlorogenic acid 0.15/0.3 wt %, FIG. 1
Protocol: The weight of each mouse was measured every other day during the feeding period, and the weight of the epididymal fat of each mouse on the last day of the feeding period. There was little difference in intake of the food among the control group (for only normal food given) and individual sample administration groups.

pancreatic lipase = target: T1, pancreatic lipase (Sus scrofa, UniProt P00591); assay: Pancreatic lipase inhibitory activity (in vitro); format: biochemical; details: swine pancreatic lipase 105.8 units/mL; FIG. 5
T1 construct: purchased SIGMA ADLRICH JAPAN K.K
T1 sequence (P00591 1-450): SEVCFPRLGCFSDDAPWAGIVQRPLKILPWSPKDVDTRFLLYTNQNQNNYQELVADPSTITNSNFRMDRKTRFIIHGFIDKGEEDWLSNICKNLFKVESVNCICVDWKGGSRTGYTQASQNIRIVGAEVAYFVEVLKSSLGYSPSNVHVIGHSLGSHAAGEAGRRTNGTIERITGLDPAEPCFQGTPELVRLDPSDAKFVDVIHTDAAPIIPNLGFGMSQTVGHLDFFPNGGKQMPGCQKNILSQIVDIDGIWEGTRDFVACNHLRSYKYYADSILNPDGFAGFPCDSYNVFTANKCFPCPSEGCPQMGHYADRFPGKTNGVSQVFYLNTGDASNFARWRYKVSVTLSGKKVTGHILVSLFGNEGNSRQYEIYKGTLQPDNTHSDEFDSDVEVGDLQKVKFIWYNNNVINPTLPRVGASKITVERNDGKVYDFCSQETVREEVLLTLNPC
Protocol: The lipase inhibitory activity was analyzed by using a pancreatic lipase (product of […] JAPAN K.K, final concentration 105.8 units/mL) derived from the swine and a lipase kit-s (Dainippon Pharmaceutical Co., Ltd.).

[2] = test system: mouse adipose cell line (3T30L1); assay: Effect on fat accumulation and differentiation of 3T3-L1 adipocytes; format: cell-based; details: 3T3-L1 after differentiation induction, 6 days with sample; FIG. 6
Protocol: The test method is herein described. Cultivate the 3T30L1 adipose cell (5×10^4 cells/mL) in DMEM medium (high glucose) including fetal calf serum (10 wt %) for two days. Then, replace the medium with a different type of medium containing insulin ([…]), dexamethasone (0.25 μM) and isobutyl methyl xanthin (0.5 mM) for the differentiation induction. Two days later, replace the medium again with the different medium containing the samples and insulin (1 μg/mL), and cultivate them for six days replacing the medium every other day. After completing the cultivation, analyze the glycerol 3-phosphate dehydrogenase (GPDH) activity which is to be an indicator of the concentration of triglyceride in the cell and adipocyte differentiation.

[3] = Suppressive effect on fatty liver (hepatic triglyceride and total cholesterol); format: in vivo; details: mice, oral once a day for two weeks; FIG. 7
From the text: The test method is herein described. Keep the mice (ddY, male, 5-week-old) in the laboratory for one week. Then, divide them into four groups and orally administer the samples suspended in the gum […] %) once a day for two weeks. On the final day of the test, remove the livers from the non-food-derived mice, and measure the amount of liver triglyceride and total cholesterol contained therein by using the test kit of Wako Pure Chemical Industries Ltd. of Japan.

[4] = Hypotriglyceridemic action in blood of food-deprived mice; format: in vivo; details: 24-hour food-deprived mice, single oral dose, blood every hour; FIG. 9
Protocol: Then the effects on the blood triglyceride level are observed. The test method is herein described. First of all, take a blood sample from the veins of the 24-hour food-deprived mice (ddy. Male, 6-week-old). Half an hour later, orally apply each sample (10 mL./kg) suspended with the gum […] of 5 w/v % to the mice. Then, take a blood sample from the mice every one hour, and measure the blood triglyceride levels. Under the same condition, measure the blood triglyceride levels of the mice as a control, in which only gum […] orally administered.

α-glucosidase = assay: α-Glucosidase inhibitory activity; format: biochemical, rat; details: for IC50: rat small intestine acetone powder enzyme, 4-methylumbelliferyl-α-D-glucopyranoside 0.05 mM, 37° C., 30 minutes; for inhibitory activity of α-glucosidase (in words): rat small intestine enzyme, Chart 2
Protocol: The test method is herein described. First of all, mix the acetone powder of the rat small intestine with the pH7.0. 0.1M phosphate buffer solution (product of […] JAPAN K.K), which is approx. 10 times as much as the volume of the acetone powder, and obtain the enzyme liquid from the centrifuged supernatant. Use the 0.2 mM 4-methyl umbel […]-gluco-pyranoside ([…] JAPAN K.K) as a substrate. After dissolving each sample in the DMSO, prepare the two-fold dilution series with the 4% DMSO containing phosphate buffer solution. The diluted solution (50 μL/well) and buffered substrate (25 μL/well) are mixed in a microplate, and after preheating it at 37° C. for 10 minutes, add the enzyme liquid (25 μL/well) to induce the reaction at 37° C. for 30 minutes (final concentration of enzyme: 1 mg protein mL, final concentration of substrate: 0.05 mM). Then, add the 0.2M Na2CO3 (100 μL/well) to stop the reaction. Measure the fluorescence intensity (excitation wavelength: 366 nm, determined wavelength: […]) using a microplate reader.

epididymal fat = assay: Lipolysis effect, glycerol release of epididymal fat (in vitro); format: cell-based, rats; details: rat epididymal fat, 37° C., three hours; extract at 1000 μg/mL; FIG. 8
Protocol: The test method is herein described. Remove the epididymal fat from male Wister rats, and incubate the fat in each sample solved in Medium 199 (medium culture) at a temperature of 37° C. for three hours. After completing the incubation, remove the fat and measure the amount of glycerol in the medium by using F-kit glycerol (product of Nippon Roche).

[5] = Four-day weight gain test with existing dietetic materials (Chart 1); format: in vivo; details: mice, sample mixed in food
Protocol: Salacia extract can be obtained by extracting the salacia root with solvent. Evening primrose extract can also be obtained by extracting the evening primrose with solvent. As a test method, as shown in Chart 1, a four-day experiment was conducted with the mice (ddY, male, 5-week-old) to freely eat the food (CE-2, CLEA Japan, Inc.) mixed with the sample as indicated in Chart 1. The weight of each mouse was measured on the first day and on the final day of the experimental period.

SMILES	effect on accumulation of epididymal fat and perinephric fat weight [1]	effect on the weight gain [1]	pancreatic lipase inhibitory activity (pancreatic lipase)	effect on the GPDH activity [2]	effect on the fat accumulation (triglyceride accumulation) [2]	effect on liver triglyceride [3]	liver total cholesterol value [3]	lowering effect on the blood-triglyceride [4]	IC50 (α-glucosidase)	inhibitory activity of α-glucosidase (in words) (α-glucosidase)	lipolysis effect (glycerol release) (epididymal fat)	Weight (g) 4th day ([5]; 4th day, average ± standard error, n = 5)	Difference in the weight compared to the control ([5]; four days)	Weight increase ([5]; four days)
Cn1c(=O)c2c(ncn2C)n(C)c1=O [Caffeine, caffeine]	slightly indicates a suppressive effect on the accumulation of the fat	do not have a sufficient suppressive effect on the weight gain	indicate a pancreatic lipase inhibitory activity	mild inhibitory effect on the GPDH activity	mild inhibitory effect on the fat accumulation	strong effect	almost the same as the value of the control group	strong lowering effect on the blood-triglyceride	>1000 µg/mL	does not indicate the inhibitory activity	–	–	–	–
O=C(/C=C/c1ccc(O)c(O)c1)O[C@@H]1C[C@](O)(C(=O)O)C[C@@H](O)[C@H]1O [Chlorogenic acid, chlorogenic acid]	slightly indicates a suppressive effect on the accumulation of the fat	do not have a sufficient suppressive effect on the weight gain	indicate a pancreatic lipase inhibitory activity	mild inhibitory effect on the GPDH activity	mild inhibitory effect on the fat accumulation	strong effect	almost the same as the value of the control group	lowering effect on the blood-triglyceride identical to the effect of synephrine	–	strong inhibitory activity of α-glucosidase	mild lipolysis effect	–	–	–
O=C(O)/C=C/c1ccc(O)c(O)c1 [Coffeic acid]	–	–	–	–	–	–	–	–	100 µg/mL (≈ 0.555 mM)	strong inhibitory activity of α-glucosidase	–	–	–	–
O=C(O)[C@]1(O)C[C@@H](O)[C@@H](O)[C@H](O)C1 [Quinic acid, quinic acid]	–	–	–	–	–	–	–	–	>1000 µg/mL	does not indicate the inhibitory activity	–	–	–	–
c1cc2c(cc1[C@H]1OC[C@H]3[C@@H]1CO[C@@H]3c1ccc3c(c1)OCO3)OCO2 [Sesamine, sesamine]	–	–	–	–	–	–	–	–	–	–	–	30.91 ± 1.79 g	-0.83 g	3.55 g
